Converted amounts (≈) assume the structure as drawn.
Legend:
Apis mellifera = conditions: acute; duration: 48 hours; dermal; mortality
Anas platyrhynchos = conditions: reproductive
Daphnia magna = conditions: chronic/long-term; duration: 21 days; reproduction
Bibionidae = conditions: chronic/long-term; duration: 28 days
Colinus virginianus = conditions: acute, mortality
Aphidius rhopalosiphi = assay: LR50; higher = less toxic; conditions: acute; duration: 48 hours; mortality

Q: Which results are given for Cc1cc(C)c(C2=C(OC(=O)CC(C)(C)C)C3(CCCC3)OC2=O)c(C)c1 [Spiromesifen]?
A: NOAEL (Rattus norvegicus; acute): 200 mg/kg-day; LD50 (Rattus norvegicus; acute, oral, mortality): > 2500 mg/kg; NOEC (Rattus norvegicus; chronic): 30 mg/kg-day; LC50 (Tagia sp.; acute, duration: 14 days, mortality): > 1000 mg/kg; NOEC (Tagia sp.; chronic/long-term, duration: 56 days, reproduction): 4.32 mg/kg; LD50 (Apis mellifera): > 200 µg/piece; LC50 (Oncorhynchus mykiss; acute, duration: 96 hours, mortality): 0.016 mg/L (≈ 0.0432 µM); NOEC (Oncorhynchus mykiss; chronic/long-term, duration: 97 days, time to swim up): 0.00473 mg/L; NOEC (Anas platyrhynchos): 229 mg/kg; LC50 (Anas platyrhynchos; mortality): > 5000 mg/kg; NOAEL (Mus musculus; chronic, duration: 18 months): 3 mg/kg-day; NOAEL (Mus musculus; subchronic, duration: 90 days, oral, clinical chemistry): 3 mg/kg-day; NOEC (Daphnia magna): 0.00025 mg/L; NOEC (Bibionidae): 0.032 mg/L; LC50 (Colinus virginianus): > 5000 mg/kg; LD50 (Colinus virginianus): > 1160 mg/kg; LD50 (Colinus virginianus; oral, diet): > 2000 mg/kg; LR50 (Aphidius rhopalosiphi): 40.6 mL/ha
